Experimental findings from ChEMBL document CHEMBL1201862, “PubChem BioAssay data set” (2004) are described below.

Among the test systems are K562; SK-MEL-2; MDA-MB-231; OVCAR-3; NCI-H460; ACHN; NCI-H522; BT-549; LOX IMVI; HCT-116; TK-10; RXF 393; Malme-3M; HL-60; SW-620; SK-OV-3; SNB-19; SK-MEL-5; COLO 205; CCRF-CEM.
Test in all cases: growth of human tumour cells (NCI), 48 h

Values joined by “and” are separate entries in the source; they are usually repeats but may differ in a detail not shown here. Equal entries are not always repeated.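 Cells were grown in 96-well plates and exposed to each compound for 48 hours at five concentrations; endpoints were interpolated linearly between bracketing concentrations, or set to the highest concentration if not reached. The concentration for 50% growth inhibition is given as GI50.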 Active and inactive are the calls of the source. Rule as the data show it: active = GI50 up to about 1.1 µM and inactive = higher.

For `O=c1c(Cl)c(Cl)cnn1-c1ccccc1`, the GI50 with K562 was 968 nM (active) and 929 nM (active); in the test with SK-MEL-2, 3.94 µM (inactive) and 3.28 µM (inactive); with MDA-MB-231 it was 1.77 µM (inactive); in the test with OVCAR-3 it was 2.03 µM (inactive) and 1.99 µM (inactive); with NCI-H460 it was 2.92 µM (inactive) and 3.72 µM (inactive); in the test with ACHN, 7.11 µM (inactive) and 5.04 µM (inactive). Besides, the GI50 is 1.26 µM (inactive) and 1.84 µM (inactive) in the test on NCI-H522; 1.8 µM (inactive) and 1.73 µM (inactive) in the test on BT-549; 1.8 µM (inactive) and 1.19 µM (inactive) in the test on LOX IMVI; 2.29 µM (inactive) and 1.75 µM (inactive) in the test with HCT-116; 15.6 µM (inactive) and 9.33 µM (inactive) in the test on TK-10; 1.9 µM (inactive) and 2.52 µM (inactive) with RXF 393. The GI50 in the test on Malme-3M is 3.46 µM (inactive) and 3.02 µM (inactive); with HL-60, 893 nM (active) and 1.09 µM (active).
`Cc1ccc2nc(N/N=C/c3cccc(C)n3)cc(C)c2c1`: the GI50 in the test on K562 was 45 µM (inactive); with SK-MEL-2 it was 18.8 µM (inactive); in the test with SW-620 it was 17.1 µM (inactive); in the test on MDA-MB-231, 18.6 µM (inactive); in the test on OVCAR-3, 14 µM (inactive); in the test on SK-OV-3, 15.4 µM (inactive). Also, the GI50 with NCI-H460 was 6.89 µM (inactive); in the test on ACHN, 15.7 µM (inactive); in the test on NCI-H522 it was 17.6 µM (inactive); in the test on BT-549, 18.8 µM (inactive); with LOX IMVI, 15.1 µM (inactive); in the test on HCT-116 it was 14.7 µM (inactive). Also, the GI50 is 14.7 µM (inactive) in the test with TK-10; 16.5 µM (inactive) in the test with RXF 393; 16 µM (inactive) with Malme-3M; 20.5 µM (inactive) in the test on SNB-19; 2.26 µM (inactive) in the test on HL-60; 17.2 µM (inactive) in the test on SK-MEL-5. Moreover, the GI50 in the test on COLO 205 is 15 µM (inactive).
On to `CSc1c(C#N)c(N)n(-c2ccc(Cl)cc2)c(=O)c1C#N`, for which the GI50 in the test with K562, with SK-MEL-2, with SW-620, in the test on MDA-MB-231, in the test on OVCAR-3 and in the test on SK-OV-3 was > 100 µM (inactive) throughout. Moreover, the GI50 is > 100 µM (inactive) with NCI-H460; 27.5 µM (inactive) in the test with NCI-H522; > 100 µM (inactive) in the test on BT-549; > 100 µM (inactive) with LOX IMVI; > 100 µM (inactive) in the test with HCT-116; > 100 µM (inactive) with TK-10. For the same molecule, the GI50 is > 100 µM (inactive) in the test on RXF 393; > 100 µM (inactive) in the test on Malme-3M; > 100 µM (inactive) with SNB-19; 46.3 µM (inactive) with HL-60; > 100 µM (inactive) in the test on SK-MEL-5; > 100 µM (inactive) in the test on COLO 205.
In the case of `CN(C)c1ccc(/C=C2\C[C@H]3[C@@H]4CC=C5C[C@@H](N6CCCC6)CC[C@]5(C)[C@H]4CC[C@]3(C)[C@H]2O)cc1`, the GI50 is 1.21 µM (inactive) with K562; 1.07 µM (active) in the test with SK-MEL-2; 1.3 µM (inactive) in the test with SW-620; 0.973 µM (active) in the test on MDA-MB-231; 1.15 µM (inactive) in the test with OVCAR-3; 4.39 µM (inactive) with SK-OV-3. Also, the GI50 in the test with NCI-H460 is 1.48 µM (inactive); in the test on ACHN it was 0.873 µM (active); in the test on NCI-H522, 1.11 µM (active); in the test with BT-549, 3.18 µM (inactive); with LOX IMVI, 0.787 µM (active); in the test on HCT-116 it was 0.897 µM (active). Besides, the GI50 with TK-10 is 1.24 µM (inactive); in the test with RXF 393, 0.966 µM (active); in the test on Malme-3M, 0.938 µM (active); in the test with SNB-19 it was 1.5 µM (inactive); in the test on HL-60 it was 1.15 µM (inactive); in the test on SK-MEL-5 it was 0.923 µM (active). The GI50 in the test with COLO 205 was 1.52 µM (inactive).
For the molecule `CN(C(=O)Cc1ccc(Cl)c(Cl)c1)[C@@H]1CCCC[C@H]1[N+]1(C)CC=CC1`, the GI50 with K562, in the test on SK-MEL-2, in the test with SW-620, with MDA-MB-231, in the test with OVCAR-3 and in the test with SK-OV-3 was > 100 µM (inactive) each time. In addition, the GI50 with ACHN, in the test with NCI-H522, with BT-549, with LOX IMVI, in the test on HCT-116 and with TK-10 was > 100 µM (inactive) in each case. Moreover, the GI50 in the test on RXF 393, in the test with Malme-3M, in the test with SNB-19, in the test on HL-60, with SK-MEL-5 and in the test with COLO 205 was > 100 µM (inactive) in each case.
As to `CC(=O)Oc1ccc2c(-c3ccccc3)c(Oc3ccc(Cl)cc3)c(=O)oc2c1`, the GI50 is 14.8 µM (inactive) in the test on K562; 20.3 µM (inactive) in the test on SW-620; 18.7 µM (inactive) with MDA-MB-231; 14.5 µM (inactive) in the test with OVCAR-3; 14.7 µM (inactive) with NCI-H460; 16.9 µM (inactive) in the test with ACHN. Moreover, the GI50 with NCI-H522 was 2.82 µM (inactive); with BT-549, 18.8 µM (inactive); in the test on LOX IMVI it was 20.6 µM (inactive); in the test on HCT-116, 14.9 µM (inactive); in the test on CCRF-CEM it was 15.4 µM (inactive); in the test with TK-10 it was 13.5 µM (inactive). Further, the GI50 with RXF 393 is 18 µM (inactive); in the test with Malme-3M it was 15.6 µM (inactive); in the test with SNB-19, 14.4 µM (inactive); with HL-60 it was 42.3 µM (inactive); in the test on SK-MEL-5 it was 18 µM (inactive).
For the molecule `CNC(=S)N/N=C(\C)c1ccc(OC)cc1O`, the GI50 is 0.7 µM (active) in the test with K562; > 100 µM (inactive) with SK-MEL-2; > 100 µM (inactive) in the test on SW-620; > 100 µM (inactive) in the test with MDA-MB-231; > 100 µM (inactive) in the test with OVCAR-3; > 100 µM (inactive) in the test with SK-OV-3. The GI50 is > 100 µM (inactive) in the test with NCI-H460; > 100 µM (inactive) in the test with ACHN; 2.72 µM (inactive) in the test with NCI-H522; > 100 µM (inactive) with BT-549; > 100 µM (inactive) in the test on LOX IMVI; > 100 µM (inactive) in the test on HCT-116. Also, the GI50 in the test on CCRF-CEM is 0.865 µM (active); in the test with RXF 393, > 100 µM (inactive); with Malme-3M, > 100 µM (inactive); in the test with SNB-19, > 100 µM (inactive); in the test on HL-60, 0.841 µM (active); in the test on SK-MEL-5 it was 7.45 µM (inactive). Moreover, the GI50 in the test on COLO 205 is 0.258 µM (active).
As for `CCOP(=O)(/C=C\n1cc(C)c(=O)[nH]c1=O)OCC`, the GI50 in the test on K562, with SK-MEL-2, in the test on SW-620, in the test on MDA-MB-231, in the test on OVCAR-3 and in the test on SK-OV-3 was > 100 µM (inactive) each time. Moreover, the GI50 is > 100 µM (inactive) in the test with NCI-H460; > 100 µM (inactive) in the test with ACHN; 12.1 µM (inactive) with NCI-H522; > 100 µM (inactive) with BT-549; > 100 µM (inactive) in the test on LOX IMVI; > 100 µM (inactive) in the test with HCT-116. Further, the GI50 with CCRF-CEM, in the test on TK-10, with RXF 393, in the test with SNB-19, with HL-60 and in the test on SK-MEL-5 was > 100 µM (inactive) each time. Moreover, the GI50 in the test with COLO 205 is > 100 µM (inactive).
